Laboratory results as given in patent publication US9861625B2, “Methods and compositions for treating cancer through inhibition of PI3K” (Duke University, priority 2014, dated 2018).

Experiments:
[1] = tested on: nine different cells lines; test: IPA-3 as a single agent in nine cell lines; format: cell-based
Protocol: The 3-(4,5-dimethylthiazol-2-yl)-2,5-diphenyltetrazolium bromide (MTT) cell viability assay was used to determine cell viability in response to drug treatment. Five replicates per concentration tested were carried out in serial dilutions with a total of ten concentrations with a 50% reduction in drug concentration per dilution for each plate. A total of 15 μl of MTT reagent was added to each drug-treated well and incubated for three hours in 37° C. Detergent was added to each drug-treated well and incubated overnight at room temperature without exposure to light. Absorbance was measured at 570 nm using a plate reader from Tecan Group. The IC50 concentration was determined using the publicly available ED50 plus v1.0 software program.
Small-molecule inhibition of PAK1 with IPA-3 achieved consistent results. PAK1 inhibition with IPA-3 was tested in nine different cells lines, both individually and in combination with BEZ235.

[2] = tested on: Ly8 cells and normal human B cells (tonsil lymphocytes); test: Toxicity in Ly8 cells compared to normal B cells (alamar blue); format: cell-based; conditions: alone and in combination; 36 hours
Protocol: BEZ235 was tested in combination with the PAK1 inhibitor IPA-3 using Calcusyn software by applying the Chou-Talalay method. BJAB, HBL1, HBL2, HT, Ly8, and Riva cells were tested, as were normal tonsil lymphocytes. Ly8 and tonsillar lymphocytes were cultured in 96-well plates (approximately 500,000 cells/ml) for 36 hours in Iscove's modified Dulbecco's medium (IMDM) with 20% human AB serum. Viability was assessed with alamar blue dye and normalized to the lowest concentration of BEZ235 in each group.
Finally, BEZ235 and IPA-3 were administered separately and concurrently to normal human B cells to ascertain a therapeutic window between normal and malignant cells.

SMILES: Oc1ccc2ccccc2c1SSc1c(O)ccc2ccccc12 [IPA-3]
- cell death at 10 μmol/L, upper end of the range ([1]; 10 μmol/L): no cell death
- IC50 ([1]; nine cell lines, read-out: observed IC50 values, lower end of range): ≥ 0.697 µM
- toxicity in Ly8 cells as compared to normal B cells [2]: selective toxicity
